In PMC2765246 (Journal of medicinal chemistry, 2008):

What was measured:
Plasmodium falciparum = settings: P. falciparum growth inhibition, cited from earlier work; for IC50: read-out: IC50 (cell)
[1] = target: T1, P. vivax FPPS (farnesyl diphosphate synthase) (Plasmodium vivax, UniProt A5K4U6); experiment: P. vivax FPPS inhibition, continuous spectrophotometric phosphate release assay; assay type: biochemical; settings: pIC50 (enzyme)
T1 sequence (A5K4U6 1-375): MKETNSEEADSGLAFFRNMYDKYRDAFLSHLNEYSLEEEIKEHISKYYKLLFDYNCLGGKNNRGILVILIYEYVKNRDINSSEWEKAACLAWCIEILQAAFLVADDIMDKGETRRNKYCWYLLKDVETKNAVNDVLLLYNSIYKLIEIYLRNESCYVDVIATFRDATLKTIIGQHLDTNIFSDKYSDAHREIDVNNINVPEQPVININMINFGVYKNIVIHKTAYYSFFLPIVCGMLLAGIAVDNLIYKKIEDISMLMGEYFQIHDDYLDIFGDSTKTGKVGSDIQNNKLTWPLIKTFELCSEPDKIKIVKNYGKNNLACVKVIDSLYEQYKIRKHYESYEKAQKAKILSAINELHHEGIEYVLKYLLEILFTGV

[2] = FPPS from Plasmodium vivax, pIC50 = −log10 IC50

## CCCCCCC(O)(P(=O)(O)O)P(=O)(O)O [Compound 1]
Plasmodium falciparum
  pIC50 (cell): 5.9

## CCCCCCCCCCCCCC(O)(P(=O)(O)O)P(=O)(O)O [Compound 2]
Plasmodium falciparum
  pIC50 (cell): 5.7

## CN(CCCCc1ccccc1)CCC(O)(P(=O)(O)O)P(=O)(O)O [Compound 3]
Plasmodium falciparum
  pIC50 (cell): 5.5
  IC50: 2900 nM

## CCCCCCCCCC(O)(P(=O)(O)O)P(=O)(O)O [Compound 4]
[1]; [2]
  IC50: 794 nM

## O=P(O)(O)C(O)(Cc1cccc(C(F)(F)F)c1)P(=O)(O)O [Compound 5]
Plasmodium falciparum
  pIC50 (cell): 5.4
[1]; [2]
  IC50: 631 nM

## O=P(O)(O)C(O)(Cc1cccc(Cl)c1)P(=O)(O)O [Compound 6]
Plasmodium falciparum
  pIC50 (cell): 5.4

## O=P(O)(O)C(O)(Cc1cccc(F)c1)P(=O)(O)O [Compound 7]
Plasmodium falciparum
  pIC50 (cell): 5.2

## O=P(O)(O)C(Nc1ccc(Cl)cn1)P(=O)(O)O [Compound 8]
Plasmodium falciparum
  pIC50 (cell): 5.0
  IC50: 11000 nM

## O=P(O)(O)C(O)(Cc1ccccc1)P(=O)(O)O [Compound 9]
Plasmodium falciparum
  pIC50 (cell): 5.0

## O=P(O)(O)C(O)(Cc1cccc(Br)c1)P(=O)(O)O [Compound 11]
[1]; [2]
  IC50: 794 nM

## CN(CCCc1ccccc1)CCC(O)(P(=O)(O)O)P(=O)(O)O [Compound 13]
Plasmodium falciparum
  pIC50 (cell): 4.6
  IC50: 23000 nM

## O=P(O)(O)C(Nc1nccs1)P(=O)(O)O [Compound 19]
[1]; [2]
  IC50: 794 nM

## O=P(O)(O)C(O)(CSc1ccncc1)P(=O)(O)O [Compound 22]
Plasmodium falciparum
  pIC50 (cell): 3.8

## CN(Cc1ccccc1)C(P(=O)(O)O)P(=O)(O)O [Compound 24]
Plasmodium falciparum
  pIC50 (cell): 3.7
[1]; [2]
  IC50: 794 nM

## Cc1ccc(C)c(COc2ccc(C)nc2NC(P(=O)(O)O)P(=O)(O)O)c1 [Compound 25]
Plasmodium falciparum
  pIC50 (cell): 3.7

## O=P(O)(O)C(O)(Cc1ccccn1)P(=O)(O)O [Compound 26]
Plasmodium falciparum
  pIC50 (cell): 3.7
[1]
  IC50: 1000 nM
